Test: collision cross section (DTIM-MS, N2); higher = larger ion
Description: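 Collision cross section (CCS) of drug and natural-product chemical standards (validation set 2, measured in this paper). Three independent measurements were made across 2 months; the value taken is their mean (avg_ccs), for the ion adduct given.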

With C=C1C(=O)O[C@H]2[C@H]1CC/C(C)=C\CC[C@@]1(C)O[C@@H]21 [Parthenolide] the collision cross section (ion adduct: [M+H]+) was 154.23 Å².

With C=C(C)C1CC=C(C=NO)CC1 (centres undefined) [Perillartine] the collision cross section (ion adduct: [M+H]+) was 138.73 Å².

For c1ccc2c(c1)Nc1ccccc1S2 [Phenothiazine], the collision cross section (ion adduct: [M-H]-) was 140.54 Å².

O=C(CCc1ccc(O)cc1)c1c(O)cc(O)cc1O[C@@H]1O[C@H](CO)[C@@H](O)[C@H](O)[C@H]1O [Phlorizin] gave a collision cross section (ion adduct: [M-H]-) of 193.11 Å².

In the case of C[C@@H]1C/C=C/C=C/C=C/C=C/[C@H](O[C@@H]2O[C@H](C)[C@@H](O)[C@H](N)[C@@H]2O)C[C@@H]2O[C@](O)(C[C@@H](O)C[C@H]3O[C@@H]3/C=C/C(=O)O1)C[C@H](O)[C@H]2C(=O)O [Pimaricin], the collision cross section (ion adduct: [M+H]+) is reported as 261.06 Å² and the collision cross section (ion adduct: [M-H]-) is reported as 262.32 Å².

Work on O=C1C[C@@H](c2ccccc2)Oc2cc(O)cc(O)c21 [Pinocembrin] yielded a collision cross section (ion adduct: [M+H]+) of 157.96 Å² and a collision cross section (ion adduct: [M-H]-) of 159.74 Å².

COc1cc(O)cc(/C=C/c2ccc(O)cc2)c1 [Pinostilbene] gave a collision cross section (ion adduct: [M+H]+) of 160.07 Å² and a collision cross section (ion adduct: [M-H]-) of 166.26 Å².

Molecule O=C(/C=C/C=C/c1ccc2c(c1)OCO2)N1CCCCC1 [Piperine] has a collision cross section (ion adduct: [M+H]+) of 177.2 Å².

COc1cc(/C=C/C(=O)N2CCC=CC2=O)cc(OC)c1OC [Piperlongumine] gave a collision cross section (ion adduct: [M+H]+) of 179.46 Å².

C[C@]12C=CC(=O)C=C1CC[C@@H]1[C@@H]2C(=O)C[C@@]2(C)[C@H]1CC[C@]2(O)C(=O)CO [Prednisone] gave a collision cross section (ion adduct: [M+H]+) of 185.04 Å² and a collision cross section (ion adduct: [M-H]-) of 191.16 Å².

With CO[C@H]1C=CO[C@@]2(C)Oc3c(C)c(O)c4c(O)c(c(/C=N/N5CCN(C)CC5)c(O)c4c3C2=O)NC(=O)/C(C)=C\C=C/[C@H](C)[C@H](O)[C@@H](C)[C@@H](O)[C@@H](C)[C@H](OC(C)=O)[C@@H]1C [Rifampicin] the collision cross section (ion adduct: [M+H]+) was 284.23 Å² and the collision cross section (ion adduct: [M-H]-) was 284.94 Å².

For C=C(C)[C@H]1Cc2c(ccc3c2O[C@@H]2COc4cc(OC)c(OC)cc4[C@@H]2C3=O)O1 [Rotenone], the collision cross section (ion adduct: [M+H]+) was 195.49 Å² and the collision cross section (ion adduct: [M-H]-) was 198.71 Å².

NC(=O)c1ccccc1O [Salicylamide] showed a collision cross section (ion adduct: [M+H]+) of 124.71 Å² and a collision cross section (ion adduct: [M-H]-) of 122.43 Å².

O=C(O)c1ccccc1O [Salicylic acid] showed a collision cross section (ion adduct: [M-H]-) of 121.24 Å².

COc1ccc(-c2cc(=O)c3c(O)cc(O)c(-c4cc(-c5cc(=O)c6c(O)cc(OC)cc6o5)ccc4OC)c3o2)cc1 [Sciadopitysin] showed a collision cross section (ion adduct: [M+H]+) of 235.37 Å² and a collision cross section (ion adduct: [M-H]-) of 235.5 Å².

C=C[C@](C)(O)CC[C@@H]1[C@@]2(C)CCCC(C)(C)[C@@H]2CC[C@@]1(C)O [Sclareol] showed a collision cross section (ion adduct: [M-H]-) of 178.93 Å².

Work on C=C[C@H]1[C@H](O[C@@H]2O[C@H](CO)[C@@H](O)[C@H](O)[C@H]2O)OC=C(C(=O)OC)[C@H]1CC(=O)O [Secoxyloganin] yielded a collision cross section (ion adduct: [M-H]-) of 190.5 Å².

Work on CC(C)=CCCC1(C)CCC2(C)C3CCC4(C)C(C)C(=O)CCC4C3(C)CCC2(C)C1 (centres undefined) [Shionone] yielded a collision cross section (ion adduct: [M+H]+) of 211.34 Å².

COc1cc([C@H]2Oc3cc([C@H]4Oc5cc(O)cc(O)c5C(=O)[C@@H]4O)ccc3O[C@@H]2CO)ccc1O [Silybin] gave a collision cross section (ion adduct: [M+H]+) of 208.54 Å² and a collision cross section (ion adduct: [M-H]-) of 204.63 Å².

CCC(C)(C)C(=O)O[C@H]1C[C@@H](C)C=C2C=C[C@H](C)[C@H](CC[C@@H]3C[C@@H](O)CC(=O)O3)[C@H]21 [Simvastatin] gave a collision cross section (ion adduct: [M+H]+) of 207.6 Å² and a collision cross section (ion adduct: [M-H]-) of 205.74 Å².

COc1cc2oc(-c3ccc(O)cc3)cc(=O)c2c(O)c1C1OC(CO)C(O)C(O)C1OC1OC(CO)C(O)C(O)C1O (centres undefined) [Spinosin] showed a collision cross section (ion adduct: [M+H]+) of 235.99 Å² and a collision cross section (ion adduct: [M-H]-) of 239.41 Å².

Nc1ccc(S(=O)(=O)[N-]c2cnc3ccccc3n2)cc1.[Na+] [Sulfaquinoxaline sodium] gave a collision cross section (ion adduct: [M+H]+) of 184.69 Å².

Work on Cc1noc(NS(=O)(=O)c2ccc(N)cc2)c1C [Sulfisoxazole] yielded a collision cross section (ion adduct: [M+H]+) of 162.69 Å² and a collision cross section (ion adduct: [M-H]-) of 162.87 Å².

COc1cc(C(=O)O)cc(OC)c1O [Syringic acid] showed a collision cross section (ion adduct: [M-H]-) of 148.59 Å².

C=CC[C@@H]1/C=C(/C)C[C@H](C)C[C@H](OC)[C@H]2O[C@@](O)(C(=O)C(=O)N3CCCC[C@H]3C(=O)O[C@H](/C(C)=C/[C@@H]3CC[C@@H](O)[C@H](OC)C3)[C@H](C)[C@@H](O)CC1=O)[C@H](C)C[C@@H]2OC [Tacrolimus] gave a collision cross section (ion adduct: [M-H]-) of 281.46 Å².

With O=c1[nH]c(=O)n(C2CCCO2)cc1F (centres undefined) [Tegafur] the collision cross section (ion adduct: [M-H]-) was 142.34 Å².

Molecule COc1cc(CCC(=O)CC(=O)CCc2ccc(O)c(OC)c2)ccc1O [Tetrahydrocurcumin] has a collision cross section (ion adduct: [M-H]-) of 185.55 Å².

With Cn1c(=O)c2c(ncn2CC(=O)O)n(C)c1=O [Theophylline-7-acetic acid] the collision cross section (ion adduct: [M+H]+) was 152.03 Å².

For Cn1c(=O)c2[nH]cnc2n(C)c1=O [Theophylline], the collision cross section (ion adduct: [M+H]+) was 137.12 Å².

Molecule Nc1nc(=S)c2[nH]cnc2[nH]1 [Thioguanine] has a collision cross section (ion adduct: [M+H]+) of 132.57 Å² and a collision cross section (ion adduct: [M-H]-) of 128.86 Å².

In the case of Cn1cncc1[C@@](N)(c1ccc(Cl)cc1)c1ccc2c(c1)c(-c1cccc(Cl)c1)cc(=O)n2C [Tipifarnib], the collision cross section (ion adduct: [M+H]+) is reported as 215.34 Å² and the collision cross section (ion adduct: [M-H]-) is reported as 215.68 Å².

Molecule NC[C@H]1O[C@H](O[C@H]2[C@H](O)[C@@H](O[C@H]3O[C@H](CO)[C@@H](O)[C@H](N)[C@H]3O)[C@H](N)C[C@@H]2N)[C@H](N)C[C@@H]1O [Tobramycin] has a collision cross section (ion adduct: [M+H]+) of 202.65 Å² and a collision cross section (ion adduct: [M-H]-) of 203.66 Å².

Molecule O=C(Nc1ccc(Cl)cc1)Nc1ccc(Cl)c(Cl)c1 [Triclocarban] has a collision cross section (ion adduct: [M+H]+) of 173.83 Å² and a collision cross section (ion adduct: [M-H]-) of 178.67 Å².

Molecule O=P(OCCCl)(OCCCl)OCCCl [Tris(2-chloroethyl) phosphate] has a collision cross section (ion adduct: [M+H]+) of 151.08 Å².

Work on CCC(=O)c1ccc(O)cc1 [Vanatone] yielded a collision cross section (ion adduct: [M+H]+) of 130 Å² and a collision cross section (ion adduct: [M-H]-) of 131.83 Å².

Molecule C[C@H]1O[C@@H](O[C@@H]2[C@@H](O)[C@H](O)[C@@H](CO)O[C@H]2c2c(O)cc(O)c3c(=O)cc(-c4ccc(O)cc4)oc23)[C@@H](O)[C@@H](O)[C@@H]1O [Vitexin-2''-O-rhamnoside] has a collision cross section (ion adduct: [M+H]+) of 221.54 Å² and a collision cross section (ion adduct: [M-H]-) of 227.62 Å².

Molecule COc1cc(O)c2c(c1)oc(=O)c1c3cc(O)c(O)cc3oc21 [Wedelolactone] has a collision cross section (ion adduct: [M+H]+) of 167.93 Å² and a collision cross section (ion adduct: [M-H]-) of 168.67 Å².

With COc1cc(CCC(C)=O)ccc1O [Zingerone] the collision cross section (ion adduct: [M-H]-) was 146.57 Å².

For CC(=O)/C=C/c1ccccc1 [trans-4-phenylbut-3-en-2-one], the collision cross section (ion adduct: [M+H]+) was 131.24 Å².

In the case of COc1ccc(C=Cc2cc(OC)cc(=O)o2)cc1 [yangonin], the collision cross section (ion adduct: [M+H]+) is reported as 163.31 Å².

Reference: the supplement of paper PMC7455731
